Laboratory results from ChEMBL document CHEMBL1201862, “PubChem BioAssay data set” (2004).
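1) Cells in 96-well plates. 2) Compound, 48 h, 5 concentrations. 3) Linear interpolation between surrounding doses. 4) Unreached endpoint = highest concentration. Here, GI50 denotes the concentration required for 50% inhibition of growth.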 Activity calls are given as the source filed them. Cut-off read from the data, not from the text of the source: active = GI50 up to about 1.1 µM and inactive = higher.

Key:
Assay in all cases: NCI anticancer screen, dose series, 48 h
[1] = system: EKVX
[2] = system: HCT-15
[3] = system: NCI-H23
[4] = system: A498
[5] = system: OVCAR-4
[6] = system: RPMI-8226
[7] = system: SK-MEL-2
[8] = system: MOLT-4
[9] = system: 786-0
[10] = system: OVCAR-3
[11] = system: HCT-116
[12] = system: HT-29
[13] = system: HOP-62
[14] = system: UO-31
[15] = system: A549
[16] = system: SK-MEL-28
[17] = system: PC-3
[18] = system: SF-539
[19] = system: SNB-19

| Structure (SMILES) | GI50 [1] | GI50 [2] [µM] | GI50 [3] | GI50 [4] | GI50 [5] | GI50 [6] | GI50 [7] | GI50 [8] | GI50 [9] | GI50 [10] | GI50 [11] | GI50 [12] | GI50 [13] | GI50 [14] | GI50 [15] | GI50 [16] | GI50 [17] | GI50 [18] | GI50 [19] |
| --- | --- | --- | --- | --- | --- | --- | --- | --- | --- | --- | --- | --- | --- | --- | --- | --- | --- | --- | --- |
| O=C(NC1CCN(Cc2ccccc2)CC1)c1ccc(I)cc1 | > 100 µM (inactive) | 59.6 | 94.2 µM (inactive) | > 100 µM (inactive) | > 100 µM (inactive) | 63.5 µM (inactive) | 75.9 µM (inactive) | > 100 µM (inactive) | 97.5 µM (inactive) | > 100 µM (inactive) | 39.6 µM (inactive) | 19.8 µM (inactive) | 55.6 µM (inactive) | 22.9 µM (inactive) | 76.4 µM (inactive) | 63.2 µM (inactive) | 62.7 µM (inactive) | 78.3 µM (inactive) | > 100 µM (inactive) |
| CCOC(=O)/C=C(\C(=O)OCC)n1cnc2c(N)ncnc21 | 8.2 µM (inactive) | 3.08 | 13.7 µM (inactive) | 13.2 µM (inactive) | 15.2 µM (inactive) | 2.02 µM (inactive) | 16.8 µM (inactive) | 2.44 µM (inactive) | 2.77 µM (inactive) | 8.41 µM (inactive) | 3.11 µM (inactive) | 6.68 µM (inactive) | 22.6 µM (inactive) | 16.5 µM (inactive) | 17.1 µM (inactive) | 13.6 µM (inactive) | 13.3 µM (inactive) | 14.1 µM (inactive) | 16.1 µM (inactive) |
| CC(C)[Si]1(C(C)C)OCC2OC(n3ccc(=O)[nH]c3=O)C([Se]c3ccccc3)C2O[Si](C(C)C)(C(C)C)O1 (centres undefined) | 4.93 µM (inactive) | 4.39 | 3.57 µM (inactive) | 7.87 µM (inactive) | 2.88 µM (inactive) | 2.95 µM (inactive) | 6.79 µM (inactive) | 7.38 µM (inactive) | 3.83 µM (inactive) | 4.52 µM (inactive) | 2.62 µM (inactive) | 1.66 µM (inactive) | 12.3 µM (inactive) | 8.77 µM (inactive) | 9.46 µM (inactive) | 3.59 µM (inactive) | 3.35 µM (inactive) | 7.96 µM (inactive) | 0.261 µM (active) |
| Cc1ccc(-c2cn3c(nc4ccccc43)c(C)n2)cc1 | > 54 µM (inactive) | 25.2 | 22.6 µM (inactive) | 19.8 µM (inactive) | 59 µM (inactive) | 30.7 µM (inactive) | > 43.4 µM (inactive) | 43.7 µM (inactive) | 25.8 µM (inactive) | 48 µM (inactive) | 32 µM (inactive) | 24.4 µM (inactive) | 30.8 µM (inactive) | 2.71 µM (inactive) | 55.1 µM (inactive) | 58.2 µM (inactive) | 46.6 µM (inactive) | > 54.3 µM (inactive) | 66.2 µM (inactive) |
| CN1CCN(c2cc3nc4cc(O)cc(O)c4c(O)c3cc2N)CC1 | 19.4 µM (inactive) | 67 | 40.6 µM (inactive) | 21.6 µM (inactive) | 27.4 µM (inactive) | 20.8 µM (inactive) | 19.4 µM (inactive) | 0.33 µM (active) | 38.7 µM (inactive) | 20.7 µM (inactive) | 35.8 µM (inactive) | 23.2 µM (inactive) | 33.6 µM (inactive) | 19.7 µM (inactive) | 61 µM (inactive) | 27.2 µM (inactive) | 18.1 µM (inactive) | 0.608 µM (active) | 37.1 µM (inactive) |
| Cn1c(-c2ccccc2)cc(-c2ccsc2)c1-c1ccsc1 | > 100 µM (inactive) | > 100 | > 100 µM (inactive) | > 100 µM (inactive) | > 100 µM (inactive) | > 100 µM (inactive) | > 100 µM (inactive) | > 100 µM (inactive) | > 100 µM (inactive) | 34.3 µM (inactive) | 55.5 µM (inactive) | 67.3 µM (inactive) | 49.5 µM (inactive) | > 100 µM (inactive) | > 100 µM (inactive) | > 100 µM (inactive) | > 100 µM (inactive) | 95.5 µM (inactive) | 17.2 µM (inactive) |
| COc1cc(/C=C2\C[C@H]3[C@@H]4CCC5=CC(=O)CC[C@]5(C)[C@H]4CC[C@]3(C)C2=O)cc(OC)c1OC | 15.6 µM (inactive) | 4.82 | 6.4 µM (inactive) | 17.7 µM (inactive) | 6.12 µM (inactive) | 2.38 µM (inactive) | 7.19 µM (inactive) | 2.13 µM (inactive) | 23.1 µM (inactive) | 4.49 µM (inactive) | 3.85 µM (inactive) | 5.82 µM (inactive) | 12.8 µM (inactive) | 2.72 µM (inactive) | 4.15 µM (inactive) | 15.9 µM (inactive) | 3.23 µM (inactive) | 46.7 µM (inactive) | 30.3 µM (inactive) |
| O=C1c2c(Br)sc(Br)c2[C@@H](Cl)[C@H]1Cl | 21.7 µM (inactive) | 19.7 | 12.9 µM (inactive) | > 100 µM (inactive) | 18.2 µM (inactive) | 18.2 µM (inactive) | 18.9 µM (inactive) | 14.9 µM (inactive) | 24.5 µM (inactive) | 14.3 µM (inactive) | 22.8 µM (inactive) | 28.4 µM (inactive) | 17.9 µM (inactive) | 20.2 µM (inactive) | 29 µM (inactive) | 23.3 µM (inactive) | 18.7 µM (inactive) | 12.5 µM (inactive) | 18.9 µM (inactive) |
| COC(=O)C12Oc3ccc(-c4ccc5c(c4O)C(O)=C4C(=O)CC(C)C(O)C4(C(=O)OC)O5)c(O)c3C(O)=C1C(=O)CC(C)C2O (centres undefined) | 0.0805 µM (active) | 0.216 | 0.0615 µM (active) | 0.544 µM (active) | 0.467 µM (active) | 0.0494 µM (active) | 0.0798 µM (active) | 0.0641 µM (active) | 0.314 µM (active) | 0.0719 µM (active) | 0.126 µM (active) | 0.0495 µM (active) | 0.0644 µM (active) | 0.156 µM (active) | 0.0702 µM (active) | 0.0397 µM (active) | 0.0764 µM (active) | 0.055 µM (active) | 0.583 µM (active) |
| COc1cc2cc(C(=O)N3CC(CCl)c4ccc([N+](=O)[O-])cc43)[nH]c2c(OC)c1OC (centres undefined) | 30.8 µM (inactive) | > 100 | > 100 µM (inactive) | > 100 µM (inactive) | 29.2 µM (inactive) | > 100 µM (inactive) | > 100 µM (inactive) | > 100 µM (inactive) | > 100 µM (inactive) | > 100 µM (inactive) | > 100 µM (inactive) | 17.4 µM (inactive) | > 100 µM (inactive) | > 100 µM (inactive) | > 100 µM (inactive) | > 100 µM (inactive) | > 100 µM (inactive) | > 100 µM (inactive) | > 100 µM (inactive) |
| O=C(/C=C/C=C/c1ccccc1)c1ccc2c(c1)CCCC2 | 36.5 µM (inactive) | 36 | 35 µM (inactive) | 38 µM (inactive) | 43.7 µM (inactive) | 24.4 µM (inactive) | 83.2 µM (inactive) | 25.9 µM (inactive) | 39 µM (inactive) | 35.6 µM (inactive) | 31.6 µM (inactive) | 28.4 µM (inactive) | 91.6 µM (inactive) | 61 µM (inactive) | 49.8 µM (inactive) | > 100 µM (inactive) | 36.5 µM (inactive) | 54.5 µM (inactive) | 97.7 µM (inactive) |
